In EP4748840A1, “IMIDAZO[1,2-A]PYRIDINE TYPE IRAK DEGRADATION AGENT AND USE THEREOF” (TAINUORUI (TIANJIN) BIOTECHNOLOGY CO., LTD, priority 2023, dated 2025):

How the values were obtained:
[1] = In vivo pharmacokinetic study in mice; conditions: male CD1 mice
Protocol: In vivo pharmacokinetic study
The pharmacokinetic behaviors of Example 1 and Example 15 in mice were studied using the following experimental protocol to evaluate their pharmacokinetic characteristics.
The mice had free access to food and water before the test.
(§1) Approximately 0.03 mL of venous blood was collected from the dorsal metatarsal vein of each mouse separately after 0.033 h, 0.083 h, 0.25 h, 0.5 h, 1 h, 2 h, 4 h, 8 h, and 24 h since intravenous injection. The blood was placed in an EDTA-K2 tube and centrifuged for 5 min at 4000 g and 4°C. The plasma was separated. The concentration of the compound in the plasma was determined through liquid chromatography-tandem mass spectrometry.
as §1, with “after” for “after 0.033 h,”, “oral administration.” for “intravenous injection.”

[2] = Liver microsomal stability assay (mouse); type: in vitro ADME; conditions: Mouse liver microsomes 0.5 mg/mL, NADPH and UDPGA, 1 µM compound
Protocol: (§2) Liver microsomal stability assay
(§3) Microsomes were stored in a -80°C refrigerator, thawed in a 37°C water bath before use, and placed on ice after thawing. All other reagents were purchased from local suppliers.
(§4) In step 1, a reaction system was configured as follows:
(§5) In step 2, 40 µL of 10 mM NADPH solution and 40 µL of 20 mM UDPGA solution were added to the above reaction system, where the final concentrations of NADPH and UDPGA were 1 mM and 2 mM, respectively. 80 µL of ultrapure water was used as negative control to replace the NADPH and UDPGA solutions. The reaction system was pre-incubated for 10 min in a 37°C water bath. […]
(§6) All data calculations were performed using Microsoft Excel software. Peak areas were determined from extracted ion chromatograms and used for calculating the remaining percentage at each time point.
(§7) The remaining percentage was calculated by the following formula: remaining percentage (%) = (peakarearatiotime point/peakarearatio0 min) × 100. […]
(§8) An elimination rate constant (k) was determined through linear fitting of a natural logarithm of the remaining percentage of a parent drug versus time.
(§9) The half-life t1/2 was calculated from the elimination rate constant: t1/2 = 0.693/k.
(§10) The in vitro intrinsic clearance (µL/min/mg) was calculated by the following formula: invitroCLint = kV/N. [formula] […]

[3] = molecular target: T1, IRAK4 (Homo sapiens, UniProt Q9NWZ3); experiment: HiBiT-based intracellular degradation assay of THP1-HIBiT-IRAK4 cells; type: cell-based; conditions: half-maximal degradation concentration of IRAK4 protein, 24 h incubation
T1 construct: expressed in transfected cells; host or cells: THP1 (THP1-HIBiT-IRAK4 engineered line)
T1 sequence (Q9NWZ3 1-460): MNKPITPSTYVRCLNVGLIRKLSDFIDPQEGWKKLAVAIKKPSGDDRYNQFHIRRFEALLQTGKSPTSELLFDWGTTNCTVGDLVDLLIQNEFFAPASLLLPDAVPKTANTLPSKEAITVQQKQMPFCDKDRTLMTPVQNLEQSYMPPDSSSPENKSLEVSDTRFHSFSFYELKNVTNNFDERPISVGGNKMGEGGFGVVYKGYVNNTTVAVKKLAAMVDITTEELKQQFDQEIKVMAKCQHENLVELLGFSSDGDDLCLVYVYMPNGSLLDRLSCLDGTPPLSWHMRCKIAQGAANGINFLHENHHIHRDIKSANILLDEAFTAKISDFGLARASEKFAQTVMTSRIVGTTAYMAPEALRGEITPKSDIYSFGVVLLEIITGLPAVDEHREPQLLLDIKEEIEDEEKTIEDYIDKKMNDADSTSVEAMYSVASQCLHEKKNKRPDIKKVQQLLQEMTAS
Protocol: HiBiT-based intracellular degradation assay of THP1-HIBiT-IRAK4 cells
THP1-HIBiT-IRAK4 cells were cultured in RPMI 1640 medium supplemented with 10% fetal bovine serum (FBS) and 1% penicillin-streptomycin (PS) (37°C and 5% CO2). The THP1-HIBiT-IRAK4 cells were inoculated in a 384-well plate at 5000 cells/40 µL/well. Compound solutions with different concentrations were added at 40 nL/well and incubated for 24 h at 37°C in 5% CO2. HiBiT lysis detection reagents were added to the wells, the plate was incubated for 30 min at room temperature, and luminescence values were read on Envision. [formula]
The DC50 (half-maximal degradation concentration) of each compound was obtained using XLfit software and the following nonlinear fitting equation: Y = bottom + (top−bottom)/(1+10^(∧)((LogDC50−X)×Hillslope)). [formula]
X denotes a log value of the compound concentration.
Y denotes the degradation rate.
Table 1 lists the results of DC50 values of IRAK4 protein degradation. […]

[4] = Liver microsomal stability assay (dog); type: in vitro ADME; conditions: Dog liver microsomes 0.5 mg/mL, NADPH and UDPGA, 1 µM compound
Protocol: as §2, §3, §4, §5, §6, §7, §8, §9, §10

[5] = Liver microsomal stability assay (human); type: in vitro ADME; conditions: Human liver microsomes 0.5 mg/mL, NADPH and UDPGA, 1 µM compound
Protocol: as §2, §3, §4, §5, §6, §7, §8, §9, §10

[6] = Liver microsomal stability assay (rat); type: in vitro ADME; conditions: Rat liver microsomes 0.5 mg/mL, NADPH and UDPGA, 1 µM compound
Protocol: as §2, §3, §4, §5, §6, §7, §8, §9, §10

[7] = Liver microsomal stability assay (monkey); type: in vitro ADME; conditions: Monkey liver microsomes 0.5 mg/mL, NADPH and UDPGA, 1 µM compound
Protocol: as §2, §3, §4, §5, §6, §7, §8, §9, §10

[8] = mouse, plasma, Intravenous Injection (2 mg/kg)

F ([1]; oral bioavailability, Oral Administration (20 mg/kg) vs Intravenous Injection (2 mg/kg)): 61.7%
clearance [1, 8]: 37.2 mL/min/kg
half-life [1, 8]: 8.05 h
half-life ([1]; mouse, plasma, Oral Administration (20 mg/kg)): 8.01 h
AUC(0-t) ([1]; mouse, Intravenous Injection (2 mg/kg), plasma): 870 ng·h/mL
AUC(0-t) ([1]; mouse, Oral Administration (20 mg/kg), plasma): 4760 ng·h/mL
half-life at 1 µM [2]: 2.39 h
microsomal CLint at 1 µM [2]: 9.67 µL/min/mg
DC50 [3]: 1.62 nM
half-life at 1 µM [4]: 4.33 h
microsomal CLint at 1 µM [4]: 5.34 µL/min/mg
half-life at 1 µM [5]: 6.68 h
microsomal CLint at 1 µM [5]: 3.46 µL/min/mg
half-life at 1 µM [6]: 2.23 h
microsomal CLint at 1 µM [6]: 10.4 µL/min/mg
half-life at 1 µM [7]: 3.2 h
microsomal CLint at 1 µM [7]: 7.22 µL/min/mg
Compound: CC(C)(O)c1cc2nc(C3CCN(CC4CCN(c5cc6c(cc5F)C(=O)N(C5CCC(=O)NC5=O)C6=O)CC4)CC3)cn2cc1NC(=O)c1cccc(C(F)(F)F)n1 (centres unmarked) [Example 15, N-(2-(1-((1-(2-(2,6-dioxopiperidin-3-yl)-6-fluoro-1,3-dioxoisoindolin-5-yl)piperidin-4-yl)methyl)piperidin-4-yl)-7-(2-hydroxypropan-2-yl)imidazo[1,2-a]pyridin-6-yl)-6-(trifluoromethyl)pyridine-2-carboxamide]
